The text below walks through data of PubChem BioAssay (NCI).

Test systems include DMS 273 small cell lung; P388 leukemia; DLD-1 colon; XF 498 CNS; HOP-18 NSCLC; TK-10 renal; LXFL 529 NSCLC; 786-0 renal; BT-549 breast; MDA-MB-435; MDA-MB-231 breast; HS 578T breast; RXF-631 renal.
What all share (test): NCI tumour cell line growth inhibition, 48 h

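Where inhibition never reached the appropriate level, the endpoint shown equals the highest concentration tested. Otherwise, values were interpolated linearly from a five-concentration, 48-hour dose response in 96-well plates. TGI: concentration producing complete growth inhibition.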

Regarding `CC(C(=O)O)c1cnn(-c2ccccc2)c1-n1cccc1` (stereo unspecified), the TGI with DMS 273 small cell lung, with P388 leukemia, in the test with DLD-1 colon, with XF 498 CNS and in the test with HOP-18 NSCLC was above 100 µM throughout.
On to `Oc1ccc2ccccc2c1N=Nc1ccc(F)cc1`, for which the TGI in the test on DMS 273 small cell lung, in the test on TK-10 renal, in the test with LXFL 529 NSCLC, with 786-0 renal and in the test with HOP-18 NSCLC was above 100 µM each time.
As for `CC(=O)OC[C@H]1[C@@H]2C(CC[C@]13CO3)OC(=O)CC(C)[C@]2(C)CCc1ccoc1` (stereo partly specified), the TGI in the test on BT-549 breast, in the test with TK-10 renal, in the test with MDA-MB-435, with MDA-MB-231 breast and in the test with HS 578T breast was above 100 µM in each case.
As to `O=C(NCCCNC(=O)c1ccc2cc(O)c(O)cc2c1)c1ccc2cc(O)c(O)cc2c1`, the TGI in the test with BT-549 breast, in the test on TK-10 renal and with MDA-MB-435 was above 100 µM each time.
For `CC[C@]12C=CCN3CC[C@@]4(c5ccc(OC)cc5N(C)[C@H]4[C@@](O)(C(=O)OC)[C@@H]1OC(C)=O)[C@@H]32`, the TGI in the test with DMS 273 small cell lung, with DLD-1 colon, in the test with XF 498 CNS and in the test with HOP-18 NSCLC was above 200 µM throughout.
Take `COc1ccc2c(c1)CCCc1cn[nH]c1-2`: the TGI in the test with DMS 273 small cell lung, with P388 leukemia, with DLD-1 colon, with XF 498 CNS and in the test with HOP-18 NSCLC was above 100 µM throughout.
As for `CCOCNC(=O)N(COCC)COCC`, the TGI in the test with DLD-1 colon, in the test on LXFL 529 NSCLC, with RXF-631 renal and in the test with XF 498 CNS was above 100 µM each time.
As to `CN(CCCNc1ccc2ncn3c4ccccc4c(=O)c1c23)CCCN1C(=O)c2cccc3cc([N+](=O)[O-])cc(c23)C1=O`, the TGI in the test with BT-549 breast came to 2.01 µM; with TK-10 renal, 0.156 µM; with MDA-MB-435, 2.13 µM; with MDA-MB-231 breast it was 1.26 µM; in the test on HS 578T breast, 2.42 µM.
With `COc1ccc(-c2c(C#N)c(NC(=S)NC(=O)c3ccccc3)nc3c2CCCC3)cc1OC`, the TGI in the test on BT-549 breast, in the test on TK-10 renal, with MDA-MB-435, in the test with MDA-MB-231 breast and in the test on HS 578T breast was above 100 µM each time.
Take `CC(C)CCN=c1cc2n(-c3ccc(Cl)cc3)c3ccccc3nc-2cc1Nc1ccc(Cl)cc1`: the TGI with DMS 273 small cell lung stood at 56.4 µM; in the test with P388 leukemia, 11.7 µM; in the test with DLD-1 colon, 68.4 µM; in the test with XF 498 CNS, 20.6 µM; in the test with HOP-18 NSCLC, 56.6 µM.
